# From US9089565B2, “Compositions and methods for causing neurite outgrowth” (MEDICAL RESEARCH COUNCIL, priority 2009, dated 2015)
# B1: BDNF: brain-derived neurotrophic factor, member of the neurotrophin nerve growth factor family, purchased from Merck (protein, UniProt P23560 19-247, looked up)
# Neurotrophic factor BDNF …: APMKEANIRGQGGLAYPGVRTHGTLESVNGPKAGSRGLTSLADTFEHVIEELLDEDQKVRPNEENNKDADLYTSRVMLSSQVPLEPPLLFLLEEYKNYLDAANMSMRVRRHSDPARRGELSVCDSISEWVTAADKKTAVDMSGGTVTVLEKVPVSKGQLKQYFYETKCNPMGYTKEGCRGIDKRHWNSQCRTTQSYVRALTMDSKKRIGWRFIRIDTSCVCTLTIKRGR
# Test system: RA-treated SH-SY5Y cells
# Assay: Neurite outgrowth of RA-treated SH-SY5Y cells
# Format: cell-based, human
# Protocol: FIG. 1. BDNF promotes neurite outgrowth of RA-treated SH-SY5Y, and induces phosphorylation of NgR1. (A) SH-SY5Y cells were incubated with indicated reagents. Cell images were taken with phase contrast microscopy. (B) Number of cells extending neurite-like structures of more than 40 μm and total cell number were counted from images taken in (A). More than 300 cells were examined in each sample. The proportion of cells extending neurite-like structures of more than 40 μm was indicated as a percentage of total cell number. An average of three experiments is shown. Error bars indicate S. E. between experiments. Data were analysed with student's t test. (C) Whole cell extracts were prepared from RA-treated SH-SY5Y cells after incubation with or without BDNF for 24 hours, and were analysed by SDS-PAGE. Immunoblotting was performed with the indicated antibodies. (D) Whole cell extract prepared from cells treated with both RA and BDNF was incubated with the indicated reagents for 1 hour at 37° C. Immunoblotting was performed with anti-NgR1 antibody. (E) RA-treated SH-SY5Y cells were incubated with BDNF in the presence or absence of one of the following: PKC inhibitor—500 nM Gö6983 or Gö6976; PKA inhibitor—2 μM KT5720 or a PKA inhibitor peptide 14-22; or either 500 nM or 1 μM of a casein kinase inhibitor, for 24 hours. Whole cell extracts prepared from these cells were analysed by SDS-PAGE. Immunoblotting was performed with anti-NgR1 antibody.
# FIG. 2. CK2 promotes neurite outgrowth of RA-treated SH-SY5Y cells without BDNF. (A) RA-treated SH-SY5Y cells were incubated with the indicated reagents for 24 hours. Cell images were taken with phase contrast microscopy. (B) Number of cells extending neurite-like structures of more than 40 μm and total cell number were counted from images taken in (A). More than 300 cells were examined in each sample. Calculation was done as FIG. 1B. Result of student's t test between RA alone and RA+CK II+ATP was p=0.0014. (C) Myc-tagged wild type and mutant versions of NgR1 were over-expressed in SH-SY5Y cells. The cells were treated with RA, CK2 and ATP. Over-expressed NgR1-Myc was detected with anti-Myc antibody. (D) SH-SY5Y cells over-expressing 281S/A mutant NgR1-Myc were incubated with RA and NEP1-40. (E) SH-SY5Y cells over-expressing 281S/D mutant NgR1-Myc were treated as (C).
# After fixation, beta-tubulin III was detected with anti-beta-tubulin III antibody. B, Wild type or 281S/A mutant NgR1-Myc was over-expressed in SH-SY5Y cells. After 5 days treatment with RA, these cells were incubated with 500 U/ml PKA and 500 nM (74 kBq/ml) ATP. Then, NgR1-Myc was immuno-precipitated and analysed with SDS-PAGE. […] NgR1-Myc was detected with anti-Myc antibody. […]
# [1] = RA-treated SH-SY5Y, substance alone, 24 hours
molecule,measurement,setting,value
Nc1ncnc2c1ncn2[C@@H]1O[C@H](COP(=O)(O)OP(=O)(O)OP(=O)(O)O)[C@@H](O)[C@H]1O [ATP],neurite outgrowth,[1],Neither addition of ATP alone nor CK2 alone to the culture medium induced neurite outgrowth
"NEP1-40: a competitive inhibitor of Nogo-66 binding to NgR1 (MEDLDQSPLVSSSDSPPRPQPAFKYQFVREPEDEEEEEEE; Nogo-66 residues 1-40; UniProt Q9NQC3 1-40, looked up, fragment) [reference compound]",neurite outgrowth,[1],promoted neurite outgrowth
same,neurite outgrowth,"cells over-expressing 281S/A mutant NgR1, NEP1-40 for 24 hours",showed neurite outgrowth
B1,neurite outgrowth,[1],efficient neurite outgrowth
